{"source": "patent US6638919B2", "about": "“Antiviral purine derivatives” (University College Cardiff Consultants Limited, priority 2001, dated 2003)", "key": {"HIV-2 [1]": {"system": "HIV-2", "settings": "Table II, known data disclosed in PCT/GB96/00580; read-out: EC50/μM HIV-2 CEM; cited from earlier work"}, "HIV-1 [2]": {"system": "HIV-1", "settings": "read-out: EC50/μM HIV-1 CEM; Table II, known data disclosed in PCT/GB96/00580; cited from earlier work"}, "CEM cells [3]": {"system": "CEM cells", "settings": "cited from earlier work"}, "HIV-1 [4]": {"system": "HIV-1", "assay": "Inhibition of HIV-1 giant cell formation in CEM cells", "format": "cell-based", "protocol": "(§1) Then 100 μL of the infected cell suspension was transferred to microtiter plate wells and mixed with 100 μL of the appropriate dilutions of the test compounds.\nHIV 1 CEM: EC50 in μM for inhibition of HIV1 in CEM cells"}, "HIV-2 [5]": {"system": "HIV-2", "assay": "Inhibition of HIV-2 giant cell formation in CEM cells", "format": "cell-based", "protocol": "as §1\nHIV1 CEM: EC50 in μM for inhibition of […] in CEM cells.\nHIV2 CEM: EC50 in μM for inhibition of HIV-2 in CEM cells"}, "CEM cells [6]": {"system": "CEM cells", "assay": "Toxicity to mock-infected CEM cells (CC50)", "format": "cell-based", "protocol": "as §1\n(§2) CC50 CEM: CC50 in μM for toxicity to CEM cells.\n(§3) CC50 CEM: CC50 μM for toxicity to CEM cells"}, "MSV [7]": {"system": "MSV", "assay": "Inhibition of MSV", "format": "cell-based", "settings": "Table III; inhibition of MSV; read-out: EC50 MSV", "protocol": "EC50 MSV: EC50 μM for inhibition of MSV"}, "MSV [8]": {"system": "MSV", "assay": "Minimum cytotoxic concentration in MSV assay", "format": "cell-based", "design": "unit not given here", "settings": "Table III", "excerpt": "MCC MSV: minimum cytotoxic concentration in MSV essay."}, "HIV-1 [9]": {"system": "HIV-1", "assay": "Inhibition of HIV-1 giant cell formation in CEM cells", "format": "cell-based", "settings": "mean increase in potency of phosphoramidate versus its parent nucleoside for HIV 1 and HIV 2"}, "[10]": {"assay": "Toxicity to mock-infected CEM cells (CC50)", "format": "cell-based", "settings": "human; mock-infected CEM cells; Tables I and II; read-out: CC50/μM CEM", "protocol": "as §1, §2, §3"}, "[11]": {"assay": "Solution stability of salt forms", "format": "physicochemical", "settings": "% of parent (AUC) after 27 hr at room temperature", "excerpt": "(§4) The solubility and solution/solid state stability of three salt forms of (1S, 4R)-4-[2-amino-5(cyclopropylamino)-9(H)-purin-9-yl]-2-cyclopentene-1-methanol O-(phenyl ethoxy-L-alaninyl) phosphate"}, "[12]": {"assay": "Solid state stability of salt forms", "format": "physicochemical", "settings": "% of parent (AUC) after two weeks at 60° C.", "excerpt": "as §4"}, "Solid type of salt forms": {"assay": "Solid type of salt forms", "format": "physicochemical"}, "[13]": {"assay": "Acid stability, dilute HCl pH1, simulated stomach conditions", "format": "physicochemical", "settings": "0.1N HCl pH1, 25° C.", "protocol": "Compounds were tested for their stability towards acid-mediated hydrolytic decomposition employing a test designed to simulate stomach conditions. Each compound was incubated in dilute HCl of pH1 for 24 hours at 25° C. 0.3 mg of compound were added to 1 mL of 0.1N HCl at 25° C. HPLC was run immediately for time=0 and at intervals up to approximately 24 hours."}, "[14]": {"settings": "human, plasma", "quoted_text": "(§5) Each compound was incubated in normal heparinised human plasma at 37° C. for 4 hours. […] Drug concentrations were then determined by LC/MS/MS analysis using standard methods."}, "[15]": {"assay": "Biological stability in heparinised human plasma", "quoted_text": "as §5"}, "[16]": {"settings": "Table III, EC50 for inhibition of HIV-2 in CEM cells, read-out: HIV2 CBM"}, "[17]": {"settings": "heparinised human plasma, 37° C."}}, "note": "“Also recorded” adds a separate entry of the source. Where two headings read alike, the source gives them in different places.", "data": [{"molecule": "CCOC(=O)[C@H](C)NP(=O)(OC[C@@H]1C=C[C@H](n2cc(C)c(=O)[nH]c2=O)O1)Oc1ccccc1", "note": "(some centres unmarked) [Compound 951, 2′, 3′-dideoxy-2′, 3′-didehydrothymidine 5′-(phenylexthoxyalaninyl) phosphoramidate]", "values": [{"measurement": "EC50", "setting": "HIV-2 [1]", "value": 0.07, "unit": "µM"}, {"measurement": "EC50", "setting": "HIV-1 [2]", "value": 0.1, "unit": "µM"}, {"measurement": "CC50", "setting": "CEM cells [3]", "value": 5.5, "unit": "µM"}]}, {"molecule": "COC(=O)C[C@H](NP(=O)(OC[C@@H]1C=C[C@H](n2cc(C)c(=O)[nH]c2=O)O1)Oc1ccccc1)C(=O)OC", "note": "(some centres unmarked) [Compound 1078, 2′, 3′-dideoxy-2′, 3′-didehydrothymidine 5′-(phenyldimethoxyaspartyl) phosphoramidate]", "values": [{"measurement": "EC50", "setting": "HIV-2 [1]", "value": 0.65, "unit": "µM"}, {"measurement": "EC50", "setting": "HIV-1 [2]", "value": 0.55, "unit": "µM"}, {"measurement": "CC50", "setting": "CEM cells [3]", "value": 209, "unit": "µM"}]}, {"molecule": "COC(=O)[C@H](C)NP(=O)(OC[C@@H]1C=C[C@H](n2cnc3c(NC4CC4)nc(N)nc32)C1)Oc1ccccc1", "note": "(stereo partly drawn) [Compound 1490, (1S,4R)-4-(2-amino-6-cyclopropylamino-9H-purin-9-yl)-2-cyclopentene-1-methanol O-[phenyl-(methoxy-L-alaninyl)]-phosphate]", "values": [{"measurement": "EC50", "setting": "HIV-1 [4]; CEM cells, giant cell formation after 4 days, Tables I and II, read-out: EC50/μM HIV-1 CEM", "value": 0.07, "unit": "µM"}, {"measurement": "EC50", "setting": "HIV-2 [5]; CEM cells, giant cell formation after 4 days, Tables I and II, read-out: EC50/μM HIV-2 CEM", "value": 0.09, "unit": "µM"}, {"measurement": "EC50", "setting": "HIV-2 [5]; [16]", "value": 0.05, "unit": "µM"}, {"measurement": "CC50", "setting": "CEM cells [6]", "value": 13100, "unit": "nM"}, {"measurement": "EC50", "setting": "MSV [7]", "value": 1600, "unit": "nM"}, {"measurement": "MCCMSV", "setting": "MSV [8]", "value": ">4"}, {"measurement": "Fold Improvement", "setting": "HIV-1 [9]", "value": 30.2}]}, {"molecule": "COC(=O)C(C)NP(=O)(OCC1C=CC(n2cnc3c(=O)[nH]c(N)nc32)C1)Oc1ccccc1", "note": "[Example A, (1R, 4S)-9-14-(hydroxymethyl)-2-cyclopenten-2-yl] guanine-5′-[phenyl-(methoxy-L-alaninyl)]-phosphate, reference compound]", "values": [{"measurement": "EC50", "setting": "HIV-1 [4]; Human immunodeficiency virus 1, CCRF-CEM, 96 h, CEM cells, giant cell formation after 4 days, Tables I and II, read-out: EC50/μM HIV-1 CEM", "value": 1.3, "unit": "µM"}, {"measurement": "EC50", "setting": "HIV-2 [5]; Human immunodeficiency virus 2, CCRF-CEM, 96 h, CEM cells, giant cell formation after 4 days, Tables I and II, read-out: EC50/μM HIV-2 CEM", "value": 0.85, "unit": "µM"}, {"measurement": "CC50", "setting": "[10]", "value": 123, "unit": "µM"}, {"measurement": "Fold Improvement", "setting": "HIV-1 [9]", "value": 1.9}]}, {"molecule": "CCOC(=O)[C@H](C)NP(=O)(OC[C@@H]1C=C[C@H](n2cnc3c(NC4CC4)nc(N)nc32)C1)Oc1ccccc1.O=C(O)CCCC(=O)O", "note": "(stereo partly drawn) [Example 4, (1S,4R)-4-(2-Amino-6-cyclopropylamino-9(H)-purin-9-yl)-2-cyclopenten-1-methanol O-(phenylethoxy-L-alaninyl) phosphate Glutarate Salt]", "values": [{"measurement": "Stability (%) 0.1 N HCl", "setting": "[11]", "value": 69.3, "unit": "%"}, {"measurement": "Stability (%) HPMC/Tween", "setting": "[11]", "value": 98.6, "unit": "%"}, {"measurement": "Stability (%) PBS", "setting": "[11]", "value": 99.9, "unit": "%"}, {"measurement": "Solid State Stability (%)", "setting": "[12]", "value": 98.9, "unit": "%"}, {"measurement": "Solid Type", "setting": "Solid type of salt forms", "value": "crystals"}]}, {"molecule": "COC(=O)C(C)NP(=O)(OC[C@@H]1CC[C@H](n2cnc3c(N)ncnc32)O1)Oc1ccccc1", "note": "(some centres unmarked) [Compound 1093, 2′, 3′-dideoxy adenosine 5′-(phenylmethoxyalaninyl) phosphoramidate]", "values": [{"measurement": "time to degradation in acid", "setting": "[13]", "value": "less than 13 hours"}, {"measurement": "Compound left (%)", "setting": "[13]; time 0 hr", "value": 100, "unit": "%"}, {"measurement": "Compound left (%)", "setting": "[13]; time 13 hr", "value": 0, "unit": "%"}, {"measurement": "% Remaining at 4 hours", "setting": "[14]", "value": 50, "unit": "%"}, {"measurement": "EC50", "setting": "HIV-2 [1]", "value": 0.035, "unit": "µM"}, {"measurement": "EC50", "setting": "HIV-1 [2]", "value": 0.016, "unit": "µM"}, {"measurement": "CC50", "setting": "CEM cells [3]; read-out: CC50/μM CEM, Table II, known data disclosed in PCT/GB96/00580", "value": 2.57, "unit": "µM"}, {"measurement": "Half-life", "setting": "[15]; [17]", "value": 4.2, "unit": "h"}]}, {"molecule": "CCOC(=O)[C@H](C)NP(=O)(OC[C@@H]1C=C[C@H](n2cnc3c(NC4CC4)nc(N)nc32)C1)Oc1ccccc1", "note": "(stereo partly drawn) [Compound 1587, (1S,4R)-4-(2-amino-6cyclopropylamino-9H-purin-9-yl)-2-cyclopentene-1-methaanol O-[phenyl-(ethoxy-L-alaninyl)]-phosphate]", "values": [{"measurement": "EC50", "setting": "HIV-1 [4]; Table III, EC50 for inhibition of HIV1 in CEM cells, read-out: HIV1 CBM", "value": 0.07, "unit": "µM"}, {"measurement": "EC50", "setting": "HIV-2 [5]; [16]", "value": 0.06, "unit": "µM"}, {"measurement": "CC50", "setting": "CEM cells [6]; Table III, toxicity to CEM cells, read-out: CC50 CEN", "value": 12100, "unit": "nM"}, {"measurement": "acid stability in words", "setting": "[13]; after 22 hours", "value": "remained in tact"}, {"measurement": "Compound left (%)", "setting": "[13]; time 0 hr", "value": 100, "unit": "%"}, {"measurement": "Compound left (%)", "setting": "[13]; time 22 hr", "value": 77, "unit": "%"}, {"measurement": "Stability (%) 0.1 N HCl", "setting": "[11]", "value": 69.1, "unit": "%"}, {"measurement": "Stability (%) HPMC/Tween", "setting": "[11]", "value": 97.6, "unit": "%"}, {"measurement": "Stability (%) PBS", "setting": "[11]", "value": 98.5, "unit": "%"}, {"measurement": "Solid State Stability (%)", "setting": "[12]", "value": 93.7, "unit": "%"}, {"measurement": "Solid Type", "setting": "Solid type of salt forms", "value": "Amorphous; also recorded: Hygroscopic"}, {"measurement": "Half-life", "setting": "[15]; [17]", "value": 26, "unit": "h"}, {"measurement": "% Remaining at 4 hours", "setting": "[15]; heparinised human plasma, 37° C., 4 hours", "value": 91, "unit": "%"}, {"measurement": "stability advantage over each of compounds 1001 and 1093", "setting": "[15]; human plasma, Table V data", "value": 6, "unit": "fold"}]}]}
